This is an account of results in paper PMC12858405, “Ideal efficacy photoswitching for chromocontrol of TRPC4/5 channel functions in live tissues” (Nature Chemical Biology, 2026).

One assay deals with T1, heteromeric TRPC5:TRPC1 (Homo sapiens, UniProt Q9UL62).
T1 construct: expressed in transfected cells; host or cells: HEK293, transiently transfected
The experiment in a line: Whole-cell recordings, HEK293 co-expressing TRPC5 and TRPC1. The note with it: 10 nM. Type of assay: cell-based. The source says: Müller, Niemeyer, et al., Schaefer & Thorn-Seshold 2025: Ideal Efficacy Photoswitching of TRPC4/5 in Tissue 3.3 Activation of heteromeric TRPC4:TRPC1 and TRPC5:TRPC1
Supplementary Figure 15: Photoswitching of ionic currents through heteromeric TRPC4:TRPC1 and TRPC5:TRPC1 channel complexes. Whole cell recordings from HEK293 cells that were transiently transfected to express the indicated TRPC isoforms were obtained in the whole cell mode with a voltage and photoswitching paradigm as illustrated in (A). (B-D) Superimposed recordings of 20 consecutive sweeps are shown for cells that ony express TRPC4 or TRPC5 (left), and for cells that co-express the respective TRPC channel along with TRPC1 (right). Note the characteristic change of the current-voltage relationship with smaller inward currents and stronger outward rectification in cells that co-express TRPC1. […]
or 10 nM (all other panels). The data shown are representative for 4-12 patched cells, each.
Currents through heteromeric complexes that are composed of TRPC4:TRPC1 or TRPC5:TRPC1 subunits can be unequivocally recognized on the basis of their unique biophysical properties with smaller unitary and global inward current amplitudes and a marked outward rectification.44 We show […]
also the heteromeric complexes TRPC5:TRPC1 and TRPC4:TRPC1 that are formed upon co-expression with TRPC1 (Supplementary Fig. 15). […]

The target in another assay is T2, TRPC4 (Mus musculus, UniProt Q9QUQ5).
T2 construct: expressed in transfected cells; host or cells: HEK293
T2 sequence (Q9QUQ5 1-890 isoform Q9QUQ5-2): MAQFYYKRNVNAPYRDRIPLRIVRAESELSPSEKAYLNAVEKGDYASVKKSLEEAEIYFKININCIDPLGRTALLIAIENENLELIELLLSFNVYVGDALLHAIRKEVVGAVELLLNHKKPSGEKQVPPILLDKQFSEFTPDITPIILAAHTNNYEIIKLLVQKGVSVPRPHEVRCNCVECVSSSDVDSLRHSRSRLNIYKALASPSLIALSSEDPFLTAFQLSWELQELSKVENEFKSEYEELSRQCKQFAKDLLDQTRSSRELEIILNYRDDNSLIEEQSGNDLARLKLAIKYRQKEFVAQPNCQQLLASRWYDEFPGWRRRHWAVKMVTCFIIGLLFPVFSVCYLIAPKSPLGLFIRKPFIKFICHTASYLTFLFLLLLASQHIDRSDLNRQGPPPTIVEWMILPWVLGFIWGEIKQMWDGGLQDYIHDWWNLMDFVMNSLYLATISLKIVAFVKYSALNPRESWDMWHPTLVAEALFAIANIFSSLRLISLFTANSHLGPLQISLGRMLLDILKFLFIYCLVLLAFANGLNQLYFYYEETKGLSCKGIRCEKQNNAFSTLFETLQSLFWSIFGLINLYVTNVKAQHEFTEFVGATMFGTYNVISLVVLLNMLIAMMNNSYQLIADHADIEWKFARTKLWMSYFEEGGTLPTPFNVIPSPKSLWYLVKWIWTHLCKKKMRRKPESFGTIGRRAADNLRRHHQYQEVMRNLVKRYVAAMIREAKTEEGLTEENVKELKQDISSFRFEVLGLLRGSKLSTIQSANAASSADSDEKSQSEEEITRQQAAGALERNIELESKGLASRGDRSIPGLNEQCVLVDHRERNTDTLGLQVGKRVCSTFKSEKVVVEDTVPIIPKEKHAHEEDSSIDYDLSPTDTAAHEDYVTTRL
As to the kind of experiment: Whole-cell patch clamp with monochromated photoswitching, TRPC4-expressing HEK293 cells. The note with it: 10 nM, Vh −80 mV, action spectrum 330-505 nm. The assay is classed as cell-based. Background: Patch clamp records ionic current or voltage across a cell membrane.

Assay [1] relates to Th+ neurons of Th-GCaMP6f-ΔTrpc5 mice. As to the kind of experiment: GCaMP6f Ca2+ imaging of Th+ neurons in arcuate nucleus brain slices with 355 nm photoswitching, Th-GCaMP6f-ΔTrpc5 (5ko) mice.
From the text: slices through the ARC of mice expressing the Ca2+ indicator GCaMP6f in Th+ neurons (Fig. 4),
we investigated (1) whether Ca2+ responses at endogenous TRPC5 expression levels can be
TRPC5 expression using TRPC5-deficient brain slices, (3) whether a dose dependence could be
detected, and (4) whether there are properties in channel activity that can be distinguished between
concentration-response measurements (Fig. 5d).

T1 sequence (Q9UL62 whole entry): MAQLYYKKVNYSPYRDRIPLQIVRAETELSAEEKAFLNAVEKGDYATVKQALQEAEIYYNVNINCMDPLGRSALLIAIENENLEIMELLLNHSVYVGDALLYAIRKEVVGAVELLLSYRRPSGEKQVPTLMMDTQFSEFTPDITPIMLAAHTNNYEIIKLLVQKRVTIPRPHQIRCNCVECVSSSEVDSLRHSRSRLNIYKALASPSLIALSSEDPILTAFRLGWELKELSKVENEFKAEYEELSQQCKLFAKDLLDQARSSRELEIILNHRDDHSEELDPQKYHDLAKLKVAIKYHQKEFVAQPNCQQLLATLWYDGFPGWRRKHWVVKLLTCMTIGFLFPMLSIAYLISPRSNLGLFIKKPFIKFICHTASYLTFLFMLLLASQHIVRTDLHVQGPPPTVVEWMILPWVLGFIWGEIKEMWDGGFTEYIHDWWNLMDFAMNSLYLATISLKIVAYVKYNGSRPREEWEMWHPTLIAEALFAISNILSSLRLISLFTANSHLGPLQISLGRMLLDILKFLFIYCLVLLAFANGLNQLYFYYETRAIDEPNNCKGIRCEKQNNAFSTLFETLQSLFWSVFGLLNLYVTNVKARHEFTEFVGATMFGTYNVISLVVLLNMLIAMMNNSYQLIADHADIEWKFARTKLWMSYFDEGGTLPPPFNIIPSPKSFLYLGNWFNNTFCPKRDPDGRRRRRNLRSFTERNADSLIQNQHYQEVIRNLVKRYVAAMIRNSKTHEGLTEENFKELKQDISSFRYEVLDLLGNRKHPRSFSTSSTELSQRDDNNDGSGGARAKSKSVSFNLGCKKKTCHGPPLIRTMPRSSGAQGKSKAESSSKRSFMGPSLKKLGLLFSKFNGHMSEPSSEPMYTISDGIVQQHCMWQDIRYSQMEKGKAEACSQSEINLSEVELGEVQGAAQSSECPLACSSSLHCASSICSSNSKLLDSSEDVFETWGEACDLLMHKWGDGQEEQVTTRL
T1 sequence (P48995 whole entry partner): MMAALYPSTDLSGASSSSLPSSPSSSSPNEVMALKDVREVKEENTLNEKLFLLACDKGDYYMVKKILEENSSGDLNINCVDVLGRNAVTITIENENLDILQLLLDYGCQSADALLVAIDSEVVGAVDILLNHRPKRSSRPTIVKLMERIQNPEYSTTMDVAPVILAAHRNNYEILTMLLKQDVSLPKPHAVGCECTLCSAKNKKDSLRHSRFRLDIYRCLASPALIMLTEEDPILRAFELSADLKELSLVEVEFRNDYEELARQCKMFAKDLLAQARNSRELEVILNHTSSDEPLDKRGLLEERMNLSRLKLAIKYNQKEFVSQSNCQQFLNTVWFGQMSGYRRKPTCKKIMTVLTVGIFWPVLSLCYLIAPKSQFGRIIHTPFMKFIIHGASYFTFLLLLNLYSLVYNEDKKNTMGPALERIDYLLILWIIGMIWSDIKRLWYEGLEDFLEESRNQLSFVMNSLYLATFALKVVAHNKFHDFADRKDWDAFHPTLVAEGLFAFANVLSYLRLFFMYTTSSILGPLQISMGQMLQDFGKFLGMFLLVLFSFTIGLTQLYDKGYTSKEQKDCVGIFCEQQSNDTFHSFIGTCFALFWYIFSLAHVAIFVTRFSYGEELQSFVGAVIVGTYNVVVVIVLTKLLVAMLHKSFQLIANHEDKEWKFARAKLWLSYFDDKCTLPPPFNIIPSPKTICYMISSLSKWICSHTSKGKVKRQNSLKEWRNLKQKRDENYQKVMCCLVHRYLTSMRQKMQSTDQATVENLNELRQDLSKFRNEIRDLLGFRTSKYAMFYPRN
From the text for TRPC4: We next performed electrophysiological patch clamp experiments to characterize the action and specificity of channel modulation in more detail. […] Secondly, electrophysiology readouts linearly and temporally resolve ionic currents through the activated channels, unlike the delayed and attenuated fluorometric Ca^2+ influx analyses in FLIPR. Thirdly, the electrophysiology setup can use narrow-bandwidth monochromated light at any wavelength.
The repeatability of on–off photocycling allowed us to extract action spectra for both (1) photoactivation (Fig. 2d,e) and (2) photodeactivation (Fig. 2f,g) in situ in live cells.
The advantage of the ephys setup is that freely chosen monochromated wavelengths can be used for photoswitching, while in parallel there is no optical imaging light to counteract these optimal wavelengths: and this allows for optimising the photoswitchability.
repeatability of on/off photocycling allowed us to extract action spectra for both (1) photoactivation (Fig. 2d,e) and (2) photodeactivation (Fig. 2f,g) in situ in live cells.
physiological whole-cell recordings of TRPC4 currents in voltage clamp mode (a,b,d-g: Vh = -80 mV; c: Vh scan)
return to baseline currents throughout the applied voltage range. d-g, Spectral scans to extract the wavelength […]

As to `Cn1c(=O)n(CCCO)c(=O)c2c1nc(Oc1ccc(N=Nc3ccccc3)c(OC(F)(F)F)c1)n2Cc1ccc(Cl)cc1` [AzPico], the “Chromocontrol over heteromeric TRPC5:TRPC1 currents versus homomeric channels” value at heteromeric TRPC5:TRPC1 was “comparable chromocontrol”. Also, the “Wavelength range for effective off-photoswitching (channel currents)” value at TRPC4 is given as 400-480 nm.
For the compound `Cn1c(=O)n(CCCO)c(=O)c2c1nc(Oc1ccc(N=Nc3ccccc3)c(Cl)c1)n2Cc1ccc(Cl)cc1` [AzHC], in assay [1] (500 nM, 355 nm pulse), the “Ca2+ photoresponse in TRPC5-knockout slices” value is on record as “did not respond”. Moreover, the “Change in spontaneous Ca2+ activity in TRPC5-deficient Th+ neurons vs before UV” value in assay [1] (1 µM) is “no change”. The “Chromocontrol over heteromeric TRPC5:TRPC1 currents versus homomeric channels” value on heteromeric TRPC5:TRPC1 is “comparable chromocontrol”.
